The results in this text go back to BindingDB's records for PubMed 11714892 (Recordati, 2001).

The target of assay [1] is T1, Alpha-1A adrenergic receptor (Homo sapiens, UniProt P35348).
T1 sequence (P35348 whole entry): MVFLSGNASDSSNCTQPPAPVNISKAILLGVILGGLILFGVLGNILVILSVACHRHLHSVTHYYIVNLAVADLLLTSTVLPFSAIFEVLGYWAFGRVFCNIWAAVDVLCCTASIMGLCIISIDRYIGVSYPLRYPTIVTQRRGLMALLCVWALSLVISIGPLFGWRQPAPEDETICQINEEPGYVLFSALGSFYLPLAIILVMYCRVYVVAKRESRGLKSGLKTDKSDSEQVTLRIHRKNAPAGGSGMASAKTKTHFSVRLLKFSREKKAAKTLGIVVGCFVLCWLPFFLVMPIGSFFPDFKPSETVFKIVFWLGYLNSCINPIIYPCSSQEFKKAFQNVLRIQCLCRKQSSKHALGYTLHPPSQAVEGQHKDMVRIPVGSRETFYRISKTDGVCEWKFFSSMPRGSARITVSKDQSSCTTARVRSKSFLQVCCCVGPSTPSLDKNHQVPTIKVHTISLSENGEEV

In assay [2] the target is T2, Alpha-1D adrenergic receptor (Homo sapiens, UniProt P25100).
T2 sequence (P25100 whole entry): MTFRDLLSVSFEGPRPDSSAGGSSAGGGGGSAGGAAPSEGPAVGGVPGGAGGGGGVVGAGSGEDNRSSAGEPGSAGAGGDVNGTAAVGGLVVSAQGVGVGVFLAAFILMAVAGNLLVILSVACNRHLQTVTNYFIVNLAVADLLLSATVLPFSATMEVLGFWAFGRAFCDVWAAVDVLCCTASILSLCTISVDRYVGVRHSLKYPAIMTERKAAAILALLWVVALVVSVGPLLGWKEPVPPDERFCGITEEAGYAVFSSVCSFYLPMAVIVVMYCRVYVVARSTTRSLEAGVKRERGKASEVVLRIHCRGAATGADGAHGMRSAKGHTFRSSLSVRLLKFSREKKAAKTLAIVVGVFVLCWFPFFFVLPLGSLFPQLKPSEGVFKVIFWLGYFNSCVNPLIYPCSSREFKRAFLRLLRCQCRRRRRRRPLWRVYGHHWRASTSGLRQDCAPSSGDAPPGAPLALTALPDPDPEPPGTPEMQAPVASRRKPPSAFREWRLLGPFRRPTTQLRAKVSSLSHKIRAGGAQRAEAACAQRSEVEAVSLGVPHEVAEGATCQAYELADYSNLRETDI

For assay [3], the target named is T3, Alpha-1B adrenergic receptor (Homo sapiens, UniProt P35368).
T3 sequence (P35368 whole entry): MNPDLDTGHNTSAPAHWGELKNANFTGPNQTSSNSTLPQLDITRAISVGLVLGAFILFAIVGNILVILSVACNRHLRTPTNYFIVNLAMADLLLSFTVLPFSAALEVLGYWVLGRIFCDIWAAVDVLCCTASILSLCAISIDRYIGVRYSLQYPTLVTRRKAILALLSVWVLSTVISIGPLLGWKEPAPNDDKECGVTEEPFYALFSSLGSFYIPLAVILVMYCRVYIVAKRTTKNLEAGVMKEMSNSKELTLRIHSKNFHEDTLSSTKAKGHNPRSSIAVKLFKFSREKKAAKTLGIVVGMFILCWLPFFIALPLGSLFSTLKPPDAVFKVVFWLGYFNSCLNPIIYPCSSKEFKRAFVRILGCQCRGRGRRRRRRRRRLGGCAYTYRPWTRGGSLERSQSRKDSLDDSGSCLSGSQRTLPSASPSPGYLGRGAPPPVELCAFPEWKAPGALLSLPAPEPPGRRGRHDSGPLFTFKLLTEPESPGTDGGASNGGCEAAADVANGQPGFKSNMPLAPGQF

The target of assay [4] is T4, 5-hydroxytryptamine receptor 1A (Rattus norvegicus, UniProt P19327).
T4 sequence (P19327 whole entry): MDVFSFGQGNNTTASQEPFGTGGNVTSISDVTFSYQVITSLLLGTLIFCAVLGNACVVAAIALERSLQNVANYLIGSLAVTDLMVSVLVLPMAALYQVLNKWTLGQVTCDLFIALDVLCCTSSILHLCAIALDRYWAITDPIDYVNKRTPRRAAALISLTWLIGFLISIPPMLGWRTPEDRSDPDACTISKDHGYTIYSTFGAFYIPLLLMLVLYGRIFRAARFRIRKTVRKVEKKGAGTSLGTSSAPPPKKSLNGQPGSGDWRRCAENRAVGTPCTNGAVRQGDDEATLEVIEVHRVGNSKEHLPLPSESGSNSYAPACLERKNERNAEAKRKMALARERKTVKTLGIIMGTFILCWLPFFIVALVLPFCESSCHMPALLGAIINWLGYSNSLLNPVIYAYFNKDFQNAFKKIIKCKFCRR

For `COc1ccccc1N1CCN(CCN(C(=O)C2CCCCC2)c2ccccc2[N+](=O)[O-])CC1` [N-[2-[4-(2-methoxyphenyl)-1-piperazinyl]-ethyl]-N-(2-nitrophenyl)cyclohexanecarboxamide], the Ki (usually a measure of affinity in units of concentration, obtained from inhibition or displacement) in assay [1] was 81 nM; in assay [2], 5.7 nM; in assay [3] it was 105 nM; in assay [4], 0.7 nM.
